Test results: patent publication US12071404B2, “Aza (indole)-, benzothiophene-, and benzofuran-3-sulfonamides” (UCB Pharma GmbH, priority 2016, dated 2024)

Assays:
GPR17 [1] = target: T1, GPR17 (Homo sapiens, UniProt Q13304); experiment: cAMP accumulation functional assay (HTRF, Schild analysis); assay type: cell-based; design: host or cells: Flp-In T-REx CHO; details: CHO hGPR17 cells, Schild analysis vs MDL29,951, 5 μM forskolin, read-out: cAMP assay pA2 (converted)
Method: Flp-In T-REx CHO cells stably expressing human GPR17 receptor (CHO hGPR17) from Evi Kostenis' lab (Bonn University, Germany) were cultured at 37° C. in a humidified atmosphere of 5% CO2. Cells were grown in DMEM with Nutrient Mixture F-12 supplemented with hygromycin B (500 μg/mL) and blasticidin (30 μg/mL). Expression from the Flp-In locus was induced by treatment with doxycycline (1 μg/mL) for 16-20 h prior assays.
GPR17 activation can also recruit Gi-type G-protein signaling, resulting in a decrease of intracellular cyclic adenosine monophosphate (cAMP). Intracellular cAMP changes can be measured using the HTRF cAMP dynamic assay kit from CisBio (Codolet, France). Using homogenous time-resolved fluorescence technology (HTRF), the assay is based on competition between native cAMP produced by cells and cAMP labelled with the dye d2. The tracer binding was determined by an anti-cAMP antibody labeled with cryptate.
CHO hGPR17 were detached with PBS containing EDTA and dispatched in black 384-well plates with 5,000 cells per well. Cells were first incubated for 30 minutes at room temperature in HBSS Hepes (pH 7.4) containing vehicle or varying concentrations of test GPR17 antagonist/inverse agonist compounds. […] After 60 minutes incubation at room temperature, the reaction is terminated and the cells lysed by adding the d2 detection reagent and the cryptate reagent in 10 μL lysis buffer each according to manufacturer's instructions. After 60 minutes incubation, changes in cAMP concentrations are measured according to manufacturer's instructions using an Envision plate reader with laser excitation. All incubations were performed in duplicate. Data was analyzed using GraphPad Prism software using the 4-parameter logistic equation to measure MDL29,951 pEC50s in absence and presence of GPR17 antagonist/inverse agonist test compounds. Dose ratio (DR) were plotted against antagonist concentrations and Schild analysis provided estimated affinity pA2 of GPR17 antagonist/inverse agonist test compounds.
The activities of the Example compounds tested are depicted in the table below. The activity ranges A, B and C refer to pA2 values in the cAMP assay as follows: “A”: pA2<7.5, “B”: pA2 7.5<x≤8.5, “C”: pA2>8.5.

GPR17 [2] = target: T1, GPR17; experiment: Calcium mobilization functional assay (GPR17 Ca2+ assay); assay type: cell-based; design: host or cells: Flp-In T-REx CHO; details: CHO hGPR17 cells, inhibition of 50 nM MDL29,951, Calcium 5 dye, FLIPR; read-out: Ca2+ assay pIC50 (converted)
Summary of the method: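 Flp-In T-REx CHO cells stably expressing human GPR17, doxycycline-induced (1 μg/mL, 16-20 h), loaded 60 min with Calcium 5 dye. Inhibition by varying test-compound concentrations of the 50 nM MDL29,951 agonist response was read by fluorescence over time at room temperature. pIC50 came from 4-parameter logistic fitting.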

T1 sequence (Q13304 whole entry): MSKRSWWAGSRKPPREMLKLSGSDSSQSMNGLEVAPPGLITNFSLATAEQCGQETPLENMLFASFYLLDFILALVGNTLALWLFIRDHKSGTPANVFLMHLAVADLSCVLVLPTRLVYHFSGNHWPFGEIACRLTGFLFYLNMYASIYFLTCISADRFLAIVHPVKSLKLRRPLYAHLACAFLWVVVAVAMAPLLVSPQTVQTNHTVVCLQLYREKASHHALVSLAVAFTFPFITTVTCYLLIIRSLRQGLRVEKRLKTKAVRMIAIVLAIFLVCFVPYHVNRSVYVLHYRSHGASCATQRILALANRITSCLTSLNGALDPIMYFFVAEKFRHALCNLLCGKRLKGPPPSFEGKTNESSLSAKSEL

SMILES | Kb (GPR17 [1]) [nM] | IC50 (GPR17 [2]) [nM]
O=C1OCc2ccc(NS(=O)(=O)c3c[nH]c4cc(Cl)ccc34)cc21 [Compound I-8, 6-chloro-N-(3-oxo-1,3-dihydro-2-benzofuran-5-yl)-1H-indole-3-sulfonamide] | > 31.6 | > 31.6
O=S(=O)(Nc1cc(F)ccc1F)c1c[nH]c2cc(Cl)ccc12 [Compound I-9, 6-chloro-N-(2,5-difluorophenyl)-1H-indole-3-sulfonamide] | 3.16 to 31.6 | 3.16 to 31.6
N#Cc1ccc(NS(=O)(=O)c2c[nH]c3cc(Cl)ccc23)cc1 [Compound I-12, 6-chloro-N-(4-cyanophenyl)-1H-indole-3-sulfonamide] | 3.16 to 31.6 | < 3.16
CS(=O)(=O)c1ccc2c(S(=O)(=O)Nc3ccc(C#N)cc3)c[nH]c2c1 [Compound I-14, N-(4-cyanophenyl)-6-(methylsulfonyl)-1H-indole-3-sulfonamide] | 3.16 to 31.6 | 3.16 to 31.6
O=S(=O)(Nc1ccc(Cl)cc1)c1c[nH]c2cc(Cl)ccc12 [Compound I-24, 6-chloro-N-(4-chlorophenyl)-1H-indole-3-sulfonamide] | > 31.6 | > 31.6
O=S(=O)(Nc1cccc2c1OCO2)c1c[nH]c2cc(Cl)ccc12 [Compound I-25, N-(1,3-benzodioxol-4-yl)-6-chloro-1H-indole-3-sulfonamide] | 3.16 to 31.6 | < 3.16
O=[N+]([O-])c1ccc(NS(=O)(=O)c2c[nH]c3cc(Cl)ccc23)cc1 [Compound I-39, 6-chloro-N-(4-nitrophenyl)-1H-indole-3-sulfonamide] | > 31.6 | 3.16 to 31.6
O=S(=O)(Nc1ccc(I)cc1F)c1c[nH]c2cc3c(cc12)OCO3 [Compound I-44, N-(2-fluoro-4-iodophenyl)-5H-[1,3]dioxolo[4,5-f]indole-7-sulfonamide] | 3.16 to 31.6 | > 31.6
CS(=O)(=O)c1ccc2c(S(=O)(=O)Nc3ccc(I)cc3F)c[nH]c2c1 [Compound I-48, N-(2-fluoro-4-iodophenyl)-6-(methylsulfonyl)-1H-indole-3-sulfonamide] | 3.16 to 31.6 | 3.16 to 31.6
O=S(=O)(Nc1ccc(I)cc1F)c1c[nH]c2cc(F)ccc12 [Compound I-49, 6-fluoro-N-(2-fluoro-4-iodophenyl)-1H-indole-3-sulfonamide] | 3.16 to 31.6 | > 31.6
CS(=O)(=O)c1ccc2c(S(=O)(=O)Nc3ccc(Cl)cc3F)c[nH]c2c1 [Compound I-50, N-(4-chloro-2-fluorophenyl)-6-(methylsulfonyl)-1H-indole-3-sulfonamide] | 3.16 to 31.6 | 3.16 to 31.6
O=S(=O)(Nc1cc(F)c(F)cc1F)c1c[nH]c2c1ccc1ccccc12 [Compound I-52, N-(2,4,5-trifluorophenyl)-1H-benzo[g]indole-3-sulfonamide] | 3.16 to 31.6 | > 31.6
O=S(=O)(Nc1cc(F)cc(F)c1Cl)c1c[nH]c2cc(Cl)ccc12 [Compound I-55, 6-chloro-N-(2-chloro-3,5-difluorophenyl)-1H-indole-3-sulfonamide] | 3.16 to 31.6 | 3.16 to 31.6
Cc1ccc(NS(=O)(=O)c2c[nH]c3cc(Cl)ccc23)c(F)c1 [Compound I-56, 6-chloro-N-(2-fluoro-4-methylphenyl)-1H-indole-3-sulfonamide] | 3.16 to 31.6 | > 31.6
Cc1ccnc(NS(=O)(=O)c2c[nH]c3cc(Cl)ccc23)c1 [Compound I-59] | > 31.6 | > 31.6
COc1cc(NS(=O)(=O)c2c[nH]c3cc(Cl)ccc23)ncc1Cl [Compound I-60, 6-chloro-N-(5-chloro-4-methoxypyridin-2-yl)-1H-indole-3-sulfonamide] | > 31.6 | > 31.6

Second part, the compound after the results:

Kb (GPR17 [1]) [nM] | IC50 (GPR17 [2]) [nM] | SMILES
3.16 to 31.6 | > 31.6 | O=S(=O)(Nc1ccc(Cl)cn1)c1c[nH]c2cc(Cl)ccc12 [Compound I-63, 6-chloro-N-(5-chloropyridin-2-yl)-1H-indole-3-sulfonamide]
3.16 to 31.6 | 3.16 to 31.6 | O=S(=O)(Nc1ccc(Cl)cc1F)c1c[nH]c2c1ccc1cccnc12 [Compound I-65, N-(4-chloro-2-fluorophenyl)-1H-pyrrolo[3,2-h]quinoline-3-sulfonamide]
3.16 to 31.6 | 3.16 to 31.6 | O=S(=O)(Nc1cccc2c1OC(F)(F)O2)c1c[nH]c2c1ccc1cccnc12 [Compound I-66, N-(2,2-difluoro-1,3-benzodioxol-4-yl)-1H-pyrrolo[3,2-h]quinoline-3-sulfonamide]
3.16 to 31.6 | 3.16 to 31.6 | O=S(=O)(Nc1cc(F)c(F)cc1F)c1c[nH]c2c1ccc1cccnc12 [Compound I-67, N-(2,4,5-trifluorophenyl)-1H-pyrrolo[3,2-h]quinoline-3-sulfonamide]
> 31.6 | > 31.6 | COc1ccc2c(S(=O)(=O)Nc3ccc(Cl)cc3F)c[nH]c2c1 [Compound I-69, N-(4-chloro-2-fluorophenyl)-6-methoxy-1H-indole-3-sulfonamide]
< 3.16 | 3.16 to 31.6 | O=S(=O)(Nc1cccc2nsnc12)c1c[nH]c2c1ccc1cccnc12 [Compound I-73, N-(2,1,3-benzothiadiazol-4-yl)-1H-pyrrolo[3,2-h]quinoline-3-sulfonamide]
> 31.6 | > 31.6 | N#Cc1ccc2c(S(=O)(=O)Nc3ccc(Cl)cc3F)c[nH]c2c1 [Compound I-76, N-(4-chloro-2-fluorophenyl)-6-cyano-1H-indole-3-sulfonamide]
3.16 to 31.6 | < 3.16 | O=S(=O)(Nc1cccc2nsnc12)c1c[nH]c2nc(Br)ccc12 [Compound I-78, N-(2,1,3-benzothiadiazol-4-yl)-6-bromo-1H-pyrrolo[2,3-b]pyridine-3-sulfonamide]
> 31.6 | 3.16 to 31.6 | N#Cc1ccc(NS(=O)(=O)c2c[nH]c3ncc(I)cc23)cc1 [Compound I-79, N-(4-cyanophenyl)-5-iodo-1H-pyrrolo[2,3-b]pyridine-3-sulfonamide]
3.16 to 31.6 | < 3.16 | N#Cc1ccc(NS(=O)(=O)c2c[nH]c3nc(Br)ccc23)cc1 [Compound I-80, 6-bromo-N-(4-cyanophenyl)-1H-pyrrolo[2,3-b]pyridine-3-sulfonamide]
3.16 to 31.6 | 3.16 to 31.6 | O=S(=O)(Nc1cccc(F)c1Cl)c1c[nH]c2nc(Br)ccc12 [Compound I-83, 6-bromo-N-(2-chloro-3-fluoorphenyl)-1H-pyrrolo[2,3-b]pyridine-3-sulfonamide]
3.16 to 31.6 | 3.16 to 31.6 | C#Cc1ccc(NS(=O)(=O)c2c[nH]c3nc(Br)ccc23)cc1 [Compound I-85, 6-bromo-N-(4-ethynylphenyl)-1H-pyrrolo[2,3-b]pyridine-3-sulfonamide]
3.16 to 31.6 | 3.16 to 31.6 | O=S(=O)(Nc1cc(F)ccc1F)c1c[nH]c2nc(Br)ccc12 [Compound I-88, 6-bromo-N-(2,5-difluorophenyl)-1H-pyrrolo[2,3-b]pyridine-3-sulfonamide]
> 31.6 | > 31.6 | O=S(=O)(Nc1cc(F)ccc1F)c1c[nH]c2nc(Cl)ccc12 [Compound I-90, 6-chloro-N-(2,5-difluorophenyl)-1H-pyrrolo[2,3-b]pyridine-3-sulfonamide]
> 31.6 | > 31.6 | O=S(=O)(Nc1ccc(F)cc1F)c1c[nH]c2nc(Br)ccc12 [Compound I-91, 6-bromo-N-(2,4-difluorophenyl)-1H-pyrrolo[2,3-b]pyridine-3-sulfonamide]
> 31.6 | > 31.6 | O=C1OCc2ccc(NS(=O)(=O)c3c[nH]c4nc(Br)ccc34)cc21 [Compound I-92, 6-bromo-N-(3-oxo-1,3-dihydro-2-benzofuran-5-yl)-1H-pyrrolo[2,3-b]pyridine-3-sulfonamide]
3.16 to 31.6 | 3.16 to 31.6 | O=S(=O)(Nc1cccc2nsnc12)c1c[nH]c2nc(Cl)ccc12 [Compound I-93, N-(2,1,3-benzothiadiazol-4-yl)-6-chloro-1H-pyrrolo[2,3-b]pyridine-3-sulfonamide]
3.16 to 31.6 | 3.16 to 31.6 | O=S(=O)(Nc1ccc(I)cc1F)c1c[nH]c2nc(Cl)ccc12 [Compound I-94, 6-chloro-N-(2-fluoro-4-iodophenyl)-1H-pyrrolo[2,3-b]pyridine-3-sulfonamide]
